Measurements taken from patent publication US10327448B2, “Bacterium of Bacillus genus and uses thereof” (priority 2014, dated 2019).
Positions of bridges follow the written chain, without caps; N, C: chain ends. Non-standard residues stand in square brackets, D forms with d. Residues, ends and D or L forms follow the SMILES beside them. *: point of attachment. Ileψ(thiazoline)Cys = CC[C@H](C)[C@H](N)C1=N[C@H](C(=O)*)CS1; dOrn = NCCC[C@@H](N)C(=O)O

Tested on: Bacillus subtilis ssp. shriramensis (MTCC-5674)
Assay: Antibiotic sensitivity test (antibiotic discs on T3 agar); for Result: key: RES - Resistant; INT - Intermediate; SEN - Sensitive
Assay type: cell-based
Settings: antibiotic disc on T3 agar, 30° C. for 24 hours; for Result: judged against Standards
Experimental: Different antibiotic discs were placed on the surface of the T3 agar plates labelled with the respective antibiotic. The plates were incubated at 30° C. for 24 hours.

| Compound | Zone [mm] | antibiotic sensitivity of the bacterium, in words | Result |
| --- | --- | --- | --- |
| NCC[C@H](O)C(=O)N[C@@H]1C[C@H](N)[C@@H](O[C@H]2O[C@H](CN)[C@@H](O)[C@H](O)[C@H]2O)[C@H](O)[C@H]1O[C@H]1O[C@H](CO)[C@@H](O)[C@H](N)[C@H]1O [Amikacin] | 15 | intermediate resistance | INT |
| CC1(C)S[C@@H]2[C@H](NC(=O)[C@H](N)c3ccc(O)cc3)C(=O)N2[C@H]1C(=O)O [Amoxicillin] | 0 | resistant | RES |
| CC1(C)S[C@@H]2[C@H](NC(=O)[C@H](N)c3ccccc3)C(=O)N2[C@H]1C(=O)O [Ampicillin] | 0 | resistant | RES |
| CC[C@H]1OC(=O)[C@H](C)[C@@H](O[C@H]2C[C@@](C)(OC)[C@@H](O)[C@H](C)O2)[C@H](C)[C@@H](O[C@@H]2O[C@H](C)C[C@H](N(C)C)[C@H]2O)[C@](C)(O)C[C@@H](C)CN(C)[C@H](C)[C@@H](O)[C@]1(C)O [Azithromycin] | 10 | resistant | RES |
| CC[C@H](C)[C@H](N)C1=N[C@H](C(=O)N[C@@H](CC(C)C)C(=O)N[C@H](CCC(=O)O)C(=O)N[C@H](C(=O)N[C@H]2CCCCNC(=O)[C@H](CC(N)=O)NC(=O)[C@@H](CC(=O)O)NC(=O)[C@H](Cc3cnc[nH]3)NC(=O)[C@@H](Cc3ccccc3)NC(=O)[C@H]([C@@H](C)CC)NC(=O)[C@@H](CCCN)NC2=O)[C@@H](C)CC)CS1 [Bacitracin] ({Ileψ(thiazoline)Cys}-L[dE]IK[dOrn]I[dF]H[dD]N; lactam 4-C) | 21 | sensitive | SEN |
| CC1(C)S[C@@H]2[C@H](NC(=O)C(C(=O)O)c3ccccc3)C(=O)N2[C@H]1C(=O)O (stereo partly drawn) [Carbenicillin] | 15 | resistant | RES |
| CO/N=C(\C(=O)N[C@@H]1C(=O)N2C(C(=O)O)=C(CSc3nc(=O)c(=O)[nH]n3C)CS[C@H]12)c1csc(N)n1 [Ceftriaxone] | 28 | sensitive | SEN |
| CC(=O)OCC1=C(C(=O)O)N2C(=O)[C@@H](NC(=O)Cc3cccs3)[C@H]2SC1 [Cephalothin] | 40 | sensitive | SEN |
| O=C(N[C@H](CO)[C@H](O)c1ccc([N+](=O)[O-])cc1)C(Cl)Cl [Chloramphenicol] | 25 | sensitive | SEN |
| CCC[C@@H]1C[C@@H](C(=O)N[C@@H]([C@H]2O[C@H](SC)[C@H](O)[C@@H](O)[C@H]2O)[C@H](C)Cl)N(C)C1 [Clindamycin] | 10 |  |  |
| CCN1CCN(c2cc3c(cc2F)c(=O)c(C(=O)O)cn3C2CC2)CC1 [Enrofloxacin] | 41 | resistant | RES |
| CC[C@H]1OC(=O)[C@H](C)[C@@H](O[C@H]2C[C@@](C)(OC)[C@@H](O)[C@H](C)O2)[C@H](C)[C@@H](O[C@@H]2O[C@H](C)C[C@H](N(C)C)[C@H]2O)[C@](C)(O)C[C@@H](C)C(=O)[C@H](C)[C@@H](O)[C@]1(C)O [Erythromycin] | 16 | intermediate resistance | INT |
| NC[C@H]1O[C@H](O[C@H]2[C@H](O)[C@@H](O[C@H]3O[C@H](CO)[C@@H](O)[C@H](N)[C@H]3O)[C@H](N)C[C@@H]2N)[C@H](O)[C@@H](O)[C@@H]1O [Kanamycin] | 13 |  | RES |
| CCC[C@@H]1C[C@@H](C(=O)N[C@@H]([C@H]2O[C@H](SC)[C@H](O)[C@@H](O)[C@H]2O)[C@@H](C)O)N(C)C1 [Lincomycin] | 12 | resistant | RES |
| CO[C@@H]1[C@@H](OC(N)=O)[C@@H](O)[C@H](Oc2ccc3c(O)c(NC(=O)c4ccc(O)c(CC=C(C)C)c4)c(=O)oc3c2C)OC1(C)C [Novobiocin] | 24 | sensitive | SEN |
| Cc1onc(-c2ccccc2)c1C(=O)N[C@@H]1C(=O)N2[C@@H]1SC(C)(C)[C@@H]2C(=O)O [Oxacillin] | 11 | intermediate resistance | INT |
| [H]/N=C(/N)N[C@H]1[C@H](O)[C@@H](O)[C@H](O[C@@H]2O[C@@H](C)[C@](O)(C=O)[C@H]2O[C@@H]2O[C@@H](CO)[C@H](O)[C@@H](O)[C@@H]2NC)[C@@H](N/C(N)=N\[H])[C@@H]1O [Streptomycin] | 12 | intermediate resistance | INT |
| Cc1noc(NS(=O)(=O)c2ccc(N)cc2)c1C [Sulfisoxazole] | 33 | sensitive | SEN |
| NC[C@H]1O[C@H](O[C@H]2[C@H](O)[C@@H](O[C@H]3O[C@H](CO)[C@@H](O)[C@H](N)[C@H]3O)[C@H](N)C[C@@H]2N)[C@H](N)C[C@@H]1O [Tobramycin] | 15 | sensitive | SEN |
| CN[C@H](CC(C)C)C(=O)N[C@H]1C(=O)N[C@@H](CC(N)=O)C(=O)N[C@H]2C(=O)N[C@H]3C(=O)N[C@H](C(=O)N[C@H](C(=O)O)c4cc(O)cc(O)c4-c4cc3ccc4O)[C@H](O)c3ccc(c(Cl)c3)Oc3cc2cc(c3O[C@@H]2O[C@H](CO)[C@@H](O)[C@H](O)[C@H]2O[C@H]2C[C@](C)(N)[C@H](O)[C@H](C)O2)Oc2ccc(cc2Cl)[C@H]1O [Vancomycin] | 20 | sensitive | SEN |
| Gentamicin | 20 | sensitive | SEN |
| Neomycin | 12 | resistant | RES |
